Assays:
rest/activity clock = details: cited from earlier work
humans [1] = details: cited from earlier work
humans [2] = details: acute treatment; 1% of total body water versus 15% toxic
[3] = tested on: Major Depressive Disorder; assay: proposed treatment of Major Depressive Disorder with deuterium oxide/scopolamine solution; assay type: in vivo, human; details: Major Depressive Disorder subjects; proposed experiment
mammals = details: in vivo; cited from earlier work
[4] = tested on: circadian rest/activity cycle; details: cited from earlier work
fish and tadpoles = details: cited from earlier work
[5] = in vivo; cited from earlier work
rats and mice = details: cited from earlier work
one-celled algae = details: in vivo; cited from earlier work

[2H]O[2H] [deuterium oxide]
deuterium oxide concentration at which circadian rhythm began to fluctuate (rest/activity clock; hamsters, Richter 1977): 5%
drinking-water deuterium oxide concentration at which rest/activity cycle was freed from entrainment by light/dark (rest/activity clock; hamsters, Richter 1977): 10%
slowing of circadian rhythms per 5% deuterium oxide concentration increase in total body water (rest/activity clock; hamsters, on average, linear response, no lower threshold): about 1%
deuterium oxide concentration at which circadian rhythm began to fluctuate, one hamster (rest/activity clock; one hamster, Richter 1977): 1%
concentration in human fluids found not to be toxic over short time periods (humans [1]; humans, Wallace 1995): ≤ 23%
acute replacement of total body water with no evident adverse effects (humans [1]; in vivo): 15-23%
adverse effects (humans [1]; in vivo): no adverse effects
adverse effects after one liter (humans [1]; in vivo): severe vertigo with emesis
deuterium oxide concentration considered safe long term (humans [1]; in vivo): 1%
dose at which positional ocular nystagmus was observed (humans [1]; in vivo): 25 to 50 mL
duration of nystagmus (humans [1]; in vivo): up to 140 minutes
harmful effects in babies (humans [1]; in vivo): no observed harmful effects
onset of nystagmus post ingestion (humans [1]; in vivo): about 20 minutes
onset of vertigo after dose (humans [1]; in vivo): 30 min
reactions to deuterium oxide (humans [1]; in vivo): short-term vertigo in two of the subjects
sensitivity of humans to toxic effects compared to mice (humans [1]; in vivo): roughly 5 times
threshold dosage for noticeable side-effects (humans [1]; in vivo): 70 to 140 g
total body water concentration considered toxic threshold (humans [1]; in vivo): ≥ 15%
estimated Therapeutic Index (ratio of toxic dose to therapeutic dose) (humans [2]): about 15
predicted time for treatment regimen to take effect [3]: ≤ 2 days
drinking water concentration of deuterium oxide safe long term (mammals): 5%
time for chronomutagenic effect to take effect ([4]; mice, 5% deuterium oxide, Dowse 1972): ≤ 24 h
increase in period length of the activity rest cycle ([4]; white mice, maximum 30% deuterium oxide dose administered, Suter and Rawson 1968): ≤ 6%
heavy water concentration survived long-term (fish and tadpoles): 30%
elimination half-life [5]: up to 10 days
metabolites [5]: no metabolites
body water replacement at which intoxication signs and symptoms occur (rats and mice; in vivo): over 15%
deuterium oxide concentration recommended as safe long term (rats and mice; in vivo): 5%
body water deuterium oxide concentration producing coma and then death (rats and mice; rats and mice): 30-35%
deuterium oxide concentration survived long-term (one-celled algae): 100%

— patent publication US20230256004A1, “COMPOSITIONS AND METHODS FOR TREATING MOOD DISORDERS AND CIRCADIAN RHYTHM SLEEP DISORDERS” (Light Aqua LLC, priority 2020, published 2023)
